The text below walks through data of US20050107405A1, “Pharmaceutical composition for alleviating pain or spasticity in a patient suffering from spinal cord injury” (priority 2003, published 2005).

For data set [1], the system named is pain or spasticity in patients suffering from spinal cord injury. The data set is described as follows: Administration of sildenafil citrate (50 mg VIAGRA tablet) to three male patients with spinal cord injury. Type of data set: in vivo, human. Particulars: for Effect of alleviating pain or spasticity caused by spinal cord injury (in words): patients with spinal cord injury (Patients 1 to 3), comparison with customary analgesics. How it is done:
Sildenafil citrate was administered to three male patients of ages 30-73, who have sexual dysfunction and somatic pain. Patient 1: 7th thoracic vertebrae injury and complete paraplegia. […] Erectile dysfunction. Every day behavior: Wheel chair. Patient 2: 12th thoracic vertebrae injury and complete paraplegia. […] Erectile dysfunction. Every day behavior: Wheel chair. Patient 3: 6th cervical vertebrae injury and incomplete quadriplegia. They were constantly suffering from limb pain and spasticity. Erectile dysfunction. Every day behavior: Wheel chair. Patients 1 to 3 were dosed with a 50 mg tablet of […]® in the unit dosage form when feeling pain or spasticity.

Data set [2] concerns morphine-induced antinociception. Conditions: with morphine; cited from earlier work.
The subject of a further data set is peripheral nociception. Particulars: potentiated by sodium nitroprasside and L-arginine; cited from earlier work.
Another data set relates to nociception. Conditions: alone and with diclofenac; cited from earlier work.
[3] abbreviates: Patient 1, Th7 complete paraplegia, 50 mg tablet.
Where [4] appears, read: Patient 1, Th7 complete paraplegia, 50 mg tablet, monocitrate.
[5] abbreviates: Patient 2, Th12 complete paraplegia, 50 mg tablet, monocitrate.
The mark [6] stands for this setting: Patient 3, C6 incomplete quadriplegia, 50 mg tablet, monocitrate.

Entries after “also recorded” stand apart in the source; their conditions may differ.

With `O=C(O)Cc1ccccc1Nc1c(Cl)cccc1Cl` [diclofevac sodium], the “Effect of alleviating pain or spasticity caused by spinal cord injury (in words)” value (“Effect … (in words)” for short) in data set [1] is given as “no effects of alleviating pain or spasticity could be found”; in data set [1] (listed as Voltaren) it was “does not have any analgesic effects”.
In the case of `CC(C(=O)O)c1ccc(CC2CCCC2=O)cc1` (stereo not shown) [loxoprofen sodium], the figures for the “Effect … (in words)” value in data set [1] and in data set [1] (listed as Loxonin) were “no effects of alleviating pain or spasticity could be found” and “does not have any analgesic effects”, respectively.
For the compound `CCCc1nn(C)c2c(=O)[nH]c(-c3cc(S(=O)(=O)N4CCN(C)CC4)ccc3OCC)nc12.O=C(O)CC(O)(CC(=O)O)C(=O)O` [sildenafil citrate, 1-[[3-(6,7-dihydro-1-methyl-7-oxo-3-propyl-1H-pyrazolo[4,3-d]pyrimidin-5-yl)-4-ethoxyphenyl]sulfonyl]-4-methylpiperazine monocitrate], in data set [1] (setting [3]), the “Emerging Time of Effect After Administration” value was 30 min and the “Time until side effect (light heat sensation) disappeared” value was “two to three”. Also, in data set [1] (setting [4]), the “Duration of Effects” value is recorded as “around half; also recorded: half day”; the “Improvement of Erectile Dysfunction” value was “improved and Yes”; the “Side Effects” value is on record as “Light heat sensation”. The “Effects of alleviating pain or spasticity” value in data set [1] (Patient 2, Th12 complete paraplegia, 50 mg tablet) is on record as “by about 30%”. In data set [1] (setting [5]), the “Duration of Effects” value is “around one; also recorded: about one day”; the “Emerging Time of Effect After Administration” value is “around one; also recorded: one hour”; the “Improvement of Erectile Dysfunction” value was “not improved and No”; the “Side Effects” value is “No side effect was observed and No”. For the same compound, in data set [1] (setting [6]), the “Duration of Effects” value was in the range of 5 to 6 h; the “Improvement of Erectile Dysfunction” value was “improved and No”; the “Side Effects” value was “No side effect was observed and No”. For the same compound, the “Effect … (in words)” value in data set [1] was “significantly alleviates the pain or spasticity”. Further, in data set [1] (summary over Patients 1 to 3, 50 mg), the “Alleviation of the pain or spasticity” value is given as 20 to 50%.
Consider `CCCc1nn(C)c2c(=O)[nH]c(-c3cc(S(=O)(=O)N4CCN(C)CC4)ccc3OCC)nc12` [sildenafil, 5-[2-ethoxy-5-(4-methyl-1-piperazinylsulphonyl)phenyl]-1-methyl-3-n-propyl-1,6-dihydro-7H-pyrazolo[4,3-d]pyrimidin-7-one], for which the “Effect on morphine-induced antinociception” value in data set [2] was “significantly increases the morphine-induced antinociception”. Besides, the Antinociception entry with peripheral nociception was “induces antinociception”. In the data set with nociception, the Antinociceptive activity result was “produces antinociceptive activity, and increases that of diclofenac”.
